Publication PMC10525132, “Potent Antioxidant and Anti-Tyrosinase Activity of Butein and Homobutein Probed by Molecular Kinetic and Mechanistic Studies” (Antioxidants, 2023)
Where “and” joins values, the source holds several entries; their conditions need not be identical. Equal entries are not always repeated. Where two headings read alike, the source gives them in different places.

Experiments:
[1] = cited from earlier work
[2] = Inhibited autoxidation of methyl linoleate in Triton X-100 micelles (O2 uptake kinetics)
Protocol: Autoxidation studies were performed as previously described, with slight modifications. In a typical experiment, 2.5 mL of air-saturated buffered (PBS, 50 mM, pH 7.4) aqueous dispersion of MeLin (final concentration 2.74 mM) in Triton™ X-100 (final concentration 16 mM) micelles were prepared by vortex mixing. A fresh stock solution of AAPH was added (final concentration 2.5 mM), immediately followed by addition (5–30 μL) of a stock solution of the antioxidant in acetonitrile (final concentration of 1–20 μM) and by additional vortex mixing (5 s). The mixture was sealed in a 2 mL glass vial provided with a PTFE-coated stirring bar and capped with the O2 sensor. The sample was equilibrated at 37 °C in a thermostatted bath equipped with a sealed magnetic stirrer, and oxygen concentration was monitored with time as previously described. Oxygen consumption in the absence of antioxidants was compared with that recorded in the presence of butein, homobutein, or α-tocopherol (α-TOH) as the reference antioxidant. […]. The stoichiometric factor n was determined from the length of the inhibited period τ by Equation (3). The rate of initiation Ri was determined in preliminary experiments using α-TOH as the inhibitor (n = 2) by Equation (3). (1) −d[O2]/dt=kp[RH]Ri/nkinh[AH]+Ri (2) R0/Rinh−Rinh/R0=nkinh[AH]/2ktRi (3) n=Riτ/[AH]
To study the antioxidant activity of butein and homobutein on quantitative grounds, we performed inhibited autoxidation studies using biomimetic neutral micelles of methyl linoleate (MeLin) in aqueous Triton™ X-100 (with 50 mM PBS, pH 7.4, 37 °C), since it is a well-validated model we and others used in previous studies. The reaction kinetics was followed by monitoring oxygen consumption via miniaturized NIR-fluorescence-quenching O2 probes, according to a previously validated protocol, both in the absence and in the presence of different concentrations of butein or homobutein. The reaction was initiated thermally in the aqueous phase by the controlled decomposition of the azo compound AAPH so as to clearly distinguish the chain-breaking mechanism from other efficacies based on interference with the initiation process (e.g., the Fenton reaction by metal chelation) and α-TOH was used as the reference antioxidant.

[3] = design: method as in doi:10.1021/ja00310a049; conditions: reference value used for calibration, cited from earlier work

Structure (SMILES): CC(C)(C)c1cc(O)c(O)c(C(C)(C)C)c1 [3,5-di-tert-butylcatechol]
- BDEOH [1]: 78.2 kcal/mol

Structure (SMILES): OCCc1ccc(O)c(O)c1 [hydroxytyrosol]
- BDEOH [1]: 80.8 kcal/mol

Structure (SMILES): Cc1c(C)c2c(c(C)c1O)CC[C@@](C)(CCC[C@H](C)CCC[C@H](C)CCCC(C)C)O2 [α-TOH, (R,R,R)-α-tocopherol]
- BDEOH [1]: 77.1 ^3 kcal/mol
- kinh (inhibition rate constant) ([2]; AAPH (2.5 mM) initiated autoxidation of MeLin/Triton X-100 micelles, 37 °C, pH 7.4): 22.4 ± 5.8 10^3 M^−1s^−1
- kinh (inhibition rate constant) ([2]; MeLin in Triton X-100 micelles, pH 7.4, 37 °C): (2.2 ± 0.6) × 10^4 M^−1s^−1
- n (stoichiometric factor of peroxyl radical trapping) [3]: 2 and 2 ^2
- n (stoichiometric factor of peroxyl radical trapping) ([3]; listed as tocopherol): 2.0

Structure (SMILES): CC(C)(C)c1cc(C(C)(C)C)c(O)c(C(C)(C)C)c1 [TBP, 2,4,6-tri-tert-butylphenol]
- BDEOH ([1]; reference phenol): 80.1 kcal/mol
